In US20070179123A1, “Methods and compositions for treating diseases associated with pathogenic proteins” (priority 2005, published 2007):
Values after ≈ are worked out from the molar mass of the structure shown. Values joined by “and” are separate entries in the source; they are usually repeats but may differ in a detail not shown here. Equal entries are not always repeated.

Assays:
[1] = target: PrP^Sc in 22L-infected N2a cells (Mus musculus, UniProt P04925); test: cell-based; conditions: for IC50: IC50 for purging of PRP^Sc in 22L-infected N2a cells
Sequence of PrP^Sc in 22L-infected N2a cells (P04925 23-230 limits assumed): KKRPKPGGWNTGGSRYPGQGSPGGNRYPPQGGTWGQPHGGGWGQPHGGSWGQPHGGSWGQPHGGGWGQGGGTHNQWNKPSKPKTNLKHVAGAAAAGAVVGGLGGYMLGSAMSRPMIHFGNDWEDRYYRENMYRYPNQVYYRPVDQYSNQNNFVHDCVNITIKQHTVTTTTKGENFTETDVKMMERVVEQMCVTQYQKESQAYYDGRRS

[2] = test system: yeast PSI^+ (the yeast prion protein Sup35); test: microbe, parasite or virus in culture; assay type: cell-based
[3] = target: yeast prion protein Sup-NM (Saccharomyces cerevisiae, UniProt P05453); test: biochemical; conditions: for IC50: IC50 for inhibition of Sup35 yeast prion polymerization
Sequence of yeast prion protein Sup-NM (P05453 1-254 limits assumed): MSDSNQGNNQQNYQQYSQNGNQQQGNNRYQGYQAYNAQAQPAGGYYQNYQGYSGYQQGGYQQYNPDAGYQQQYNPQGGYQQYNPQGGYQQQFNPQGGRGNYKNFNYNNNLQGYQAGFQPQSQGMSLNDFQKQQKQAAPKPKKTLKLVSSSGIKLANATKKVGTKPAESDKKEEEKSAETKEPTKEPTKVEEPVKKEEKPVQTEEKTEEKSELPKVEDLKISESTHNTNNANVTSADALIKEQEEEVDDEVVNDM

[4] = target: PrP^Sc in RML-infected N2a cells (Mus musculus, UniProt P04925); test: cell-based; conditions: for IC50: IC50 for purging of PRP^Sc in RML-infected N2a cells
Sequence of PrP^Sc in RML-infected N2a cells (P04925 23-230 limits assumed): as the sequence (P04925 23-230 limits assumed) above

amyloid peptide = amyloid peptide (Homo sapiens, UniProt P05067); test: Inhibition of amyloid fibrillogenesis, Congo Red assay
Sequence of amyloid peptide (P05067 672-713): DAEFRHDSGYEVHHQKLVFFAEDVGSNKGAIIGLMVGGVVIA

Aβ42 fibrils = Aβ42 fibrils (Homo sapiens, UniProt P05067); test: Fibril disassociation gel assay; assay type: biochemical; conditions: 3-100 μg/ml compound
Sequence of Aβ42 fibrils (P05067 672-713, species assumed): as the sequence (P05067 672-713) above
Method: (§1) The 40 μM solution was used in fibrillogenesis assay, as described below. The 60 μM peptide solution was undisturbed for six months and allowed to form fibrils, and was utilized in a fibril disassociation assay.
(§2) Mefloquin was dissolved in DMSO and diluted 100 fold into the final reaction mixture, keeping the DMSO concentration constant at 1% (v/v). After incubation, 10 ul of each sample was mixed with 2.5 μl of 4×SDS-sample buffer (Invitrogen), and loaded onto a precast 12% BT gel (Invitrogen). The electrophoresis was run with MES running buffer (Invitrogen) at 200V, and the gels were stained using a silverXpress silver staining kit (Invitrogen). The lane assignments are as follows: Lane 1: molecular weight markers, 2; 40 μM fresh Aβ42, Lanes 3-7: 40 μM Aβ42 with mefloquin from 0, 3, 10, 30 to 100 μg/ml. Lanes 8-12: 10 μl Aβ42 fibrils with mefloquin from 0, 3, 10, 30 to 100 μg/ml.
(§3) Gels were photographed and scanned, and the band densities was analyzed using NIH Imagequant, version 5.2 (GE Healthcare, Sunnyvale, Calif.).

Aβ42 = target: T1, Aβ42 (Homo sapiens, UniProt P05067); test: Amyloid fibrillogenesis gel assay; assay type: biochemical; conditions: 40 μM Aβ42, 3-100 μg/ml compound, 5 days
T1 construct: 40 μM fresh Aβ42, Lanes 3-7: 40 μM Aβ42 with mefloquin
T1 sequence (P05067 672-713, species assumed): as the sequence (P05067 672-713) above
Method: as §1, §2, §3

22L-infected N2a cells = test: Toxicity seen in 22L-infected N2a cell assay (light microscopy); assay type: cell-based, mouse; conditions: @ 10 μM
Method: 10 mM solutions of tafenoquine were prepared and diluted in DMSO and then into PBS prior to being introduced to the cell medium. 5 μL of solutions were added to the cell medium. DMSO concentrations in the cell media were never higher than 0.5% (v/v). After tafenoquine was added, the cells were incubated for 5 days at 37° C. in a CO2 incubator before being lysed. Prior to cell lysis, the cells were inspected by light microscopy for toxicity, bacterial contamination, and density compared to controls. After removal of the cell media, 50 μL of lysis buffer was added to each well. Lysis buffer was composed of 0.5% (w/v) Triton X-100, 0.5% (w/v) sodium deoxycholate, 5 mM Tris-HCl, pH 7.4 at 4° C., 5 mM EDTA, and 150 mM NaCl. Five minutes after adding lysis buffer, 25 μL of 0.1 mg/mL PK (Calbiochem) in TBS was added to each well and incubated at 37° C. for 50 minutes. 225 μL of 1 mM Pefabloc (Boehringer Mannheim) was then added to each well to inhibit PK activity. 250 μL of 1 mM Pefabloc was added to samples that were not PK-treated.

**Q.** How did the IC50 [1] turn out when C=CC1CN2CCC1CC2C(O)c1ccnc2ccc(OC)cc12 (stereo not drawn) was run?
**A.** 3 to 5 µM

**Q.** What does the source list for COc1cc(C)c2c(Oc3cccc(C(F)(F)F)c3)c(OC)cc(NC(C)CCCN)c2n1 (racemic) [tafenoquine, (±)-8-[(4-amino-1-methylbutyl)amino]-2,6-dimethoxy-4-methyl-5-(3-trifluoromethylphenoxy)quinoline]?
**A.** IC50 [1]: > 2.2 µM; IC50 ([2]; Saccharomyces cerevisiae, 24 h, read-out: IC50 for inhibition of induction of PSI+): 4.5 µg/mL (≈ 9.71 µM); IC50 ([3]; thioflavin T, 25° C.): 11.2 µM; inhibition of Sup-NM amyloid polymerization (in words) ([3]; concentrations up to 200 μg/mL): nearly complete inhibition; IC50 [4]: 0.716 µM and 0.72 µM

**Q.** For CCN(CC)CCCC(C)Nc1cc(OC)cc2c(C)ccnc12 (stereo not drawn), which IC50 [1] is on record?
**A.** 3 to 5 µM

**Q.** Which IC50 (amyloid peptide) does the source give for COc1cc(NC(C)CCC(C)(C)N)c2nccc(C)c2c1Oc1cccc(C(F)(F)F)c1 (stereo not drawn) here?
**A.** 32.5 to 65 µM

**Q.** How did the IC50 (amyloid peptide) turn out when CCCCCCN(CCCCCC)CCCCCCNc1cc(OC)cc2c(C)ccnc12 was run?
**A.** < 11 µM

**Q.** With C=CC1CN2CCC1CC2[C@@H](O)c1ccnc2ccc(OC)cc12 (stereo partly drawn) as the compound, how does the IC50 [4] read?
**A.** 3 µM

**Q.** Which IC50 [4] does the source give for C=CC1CN2CCC1CC2[C@H](O)c1ccnc2ccc(OC)cc12 (stereo partly drawn) here?
**A.** 6 µM

**Q.** CCC1CN2CCC1CC2[C@H](O)c1ccnc2ccc(OC)cc12 (stereo partly drawn) was tested. Which IC50 [4] did it give?
**A.** 12.5 µM

**Q.** Which “disassociation of amyloid fibrils, gel assay (in words)” value (Aβ42 fibrils) does the source give for OC(c1cc(C(F)(F)F)nc2c(C(F)(F)F)cccc12)C1CCCCN1 (racemic) [mefloquine, DL-erythro-α-2-piperidyl-2,8-bis(trifluoromethyl)-4-quinolinemethanol, reference compound] here?
**A.** increase of monomeric amyloid peptide

**Q.** And the IC50 [1]?
**A.** 1.27 µM and 1.2 µM

**Q.** What about the “inhibition of the induction of PSI+ (in words)” value [2] of the same compound?
**A.** concentration dependent inhibition

**Q.** What about the “inhibition of fibrillogenesis of amyloid peptide, gel assay (in words)” value (Aβ42) of the same compound?
**A.** inhibited fibrillogenesis

**Q.** And the inhibition at 150 µg/mL ([3]; read-out: inhibition of the polymerization of Sup-NM)?
**A.** ~55%

**Q.** What about the IC50 [4] of the same compound?
**A.** 0.5 µM

**Q.** “(±)-8-[(4-amino-1-methylbutyl) amino]-2,6-dimethoxy-4-methyl-5-(3-trifluoromethylphenoxy)quinoline [tafenoquine]” was tested. Which “IC50 for purging of PRP^Sc in 22L-infected N2a cells” value [1] did it give?
**A.** 0.44 µg/mL

**Q.** And the “IC50 for inhibition of induction of PSI+” value ([2]; 24 h with 50 μM copper sulfate)?
**A.** 4.5 µg/mL

**Q.** What about the “IC50 for inhibition of Sup35 yeast prion polymerization” value ([3]; thioflavin T, 25° C.) of the same compound?
**A.** 5.2 ± 1.1 µg/mL

**Q.** What about the “IC50 for purging of PRP^Sc in RML-infected N2a cells” value [4] of the same compound?
**A.** 0.332 µg/mL

**Q.** Which “Toxicity (note in the RML-infected N2a cells column)” value (RML-infected N2a cells) does the source give for CCC1CN2CCC1CC2[C@@H](O)c1ccnc2ccc(OC)cc12 (stereo partly drawn) here?
**A.** (toxic @ μM)

**Q.** Which IC50 [4] does the source give for C=CC1CN2CCC1CC2[C@@H](O)c1ccnc2ccccc12 (stereo partly drawn) here?
**A.** 6 µM

**Q.** COc1cc(NCCCCCNC(C)C)c2nccc(C)c2c1 was tested. Which IC50 (amyloid peptide) did it give?
**A.** ~15.8 µM

**Q.** For Oc1ccc(Cl)c2cccnc12, which “Toxicity (note in the 22L-infected N2a cells column)” value (22L-infected N2a cells) is on record?
**A.** Toxic @ 10 μM

**Q.** COc1cc(C)c2c(Oc3cccc(C(F)(F)F)c3)c(OC)cc(NC(C)CCCNO)c2n1 (stereo not drawn) was tested. Which IC50 [4] did it give?
**A.** ~10.4 µM

**Q.** How did the IC50 (amyloid peptide) turn out when COc1cc(CO)c2c(Oc3cccc(C(F)(F)F)c3)c(OC)cc(NC(C)CCCN)c2n1 (stereo not drawn) [compound 8] was run?
**A.** ~10.4 µM

**Q.** With COc1cc(NC(C)CCCN)c2ncccc2c1 (stereo not drawn) as the compound, how does the IC50 [4] read?
**A.** < 10 µM

**Q.** How did the IC50 [4] turn out when C=CC1CN2CCC1CC2[C@H](O)c1ccnc2ccccc12 (stereo partly drawn) was run?
**A.** 18 µM

**Q.** With COc1cc(NC(C)CCCN)c2nccc(C)c2c1Oc1cccc(C(F)(F)F)c1 (stereo not drawn) [compound 3] as the compound, how does the “disassociation of amyloid fibrils, gel assay (in words)” value (Aβ42 fibrils) read?
**A.** increase of monomeric amyloid peptide

**Q.** What about the IC50 (amyloid peptide) of the same compound?
**A.** 23.1 µM

**Q.** What about the IC50 [1] of the same compound?
**A.** 0.508 µM and 1.2 µM

**Q.** And the “inhibition of fibrillogenesis of amyloid peptide, gel assay (in words)” value (Aβ42)?
**A.** inhibited fibrillogenesis

**Q.** And the IC50 ([3]; thioflavin T, 25° C.)?
**A.** ~34.6 µM and 34.6 µM

**Q.** What about the IC50 [4] of the same compound?
**A.** 0.609 µM and 0.54 µM
